Measured values published in patent publication US20050244485A1, “Transdermal administration of hydrophilic drugs using a basic permeation enhancer composition” (priority 2003, published 2005).

Legend:
[1] = cited from earlier work; for pH of 0.1 M aqueous sol'n: 0.1M aqueous solution, 25° C.
[2] = In vitro skin permeation of diclofenac sodium transdermal delivery systems, Franz diffusion cells; assay type: in vitro ADME, human; settings: 24 hours; for cumulative amount of diclofenac that permeated through the skin: 32° C.
Description: Each formulation was coated on a release liner and dried in an oven at 65° C. for two hours to remove water and other solvents. The dried drug-in-adhesive/release liner film was laminated to a backing film, and the backing/drug-in-adhesive/release liner laminate was then cut into discs with a diameter of 9/16 inch. The theoretical weight percent weight of each component of the system, after drying (calculated assuming all volatile ingredients were completely removed during drying), is set forth in Table 3.
The release liner was peeled away from the disc laminate. […] The skin/adhesive/backing laminate was clamped between the donor and receiver chambers of the diffusion cell with the skin side facing the receiver solution. […] All cells and receiver solution were maintained at 32° C. for the 24-hour duration of the study.

SMILES	pH of 0.1 M aqueous sol'n [1]	pKa [1]	other results
CC1CCCCN1C (stereo not shown) [1,2-dimethylpiperidine]	11.61	10.22	
CC1CCCN1C (stereo not shown) [1,2-dimethylpyrrolidine]	11.60	10.20	
NCCCCN [1,4-butanediamine]	11.90		
CCN1CCCCC1 [1-ethylpiperidine]	11.73	10.45	
Cc1cccnc1C [2,3-dimethylpyridine]	9.79		
Cc1cc(C)nc(C)c1 [2,4,6-trimethylpyridine]		6.69	
Cc1c[nH]c(C)n1 [2,4-dimethylimidazole]	10.68	8.36	
Cc1ccnc(C)c1 [2,4-dimethylpyridine]	10.00	6.99	
Nc1ccc(N)nc1 [2,5-diaminopyridine]	9.74	6.48	
CC1CNC(C)CN1 (stereo not shown) [2,5-dimethylpiperazine]	11.33	9.66	
CCCCCC(C)N (stereo not shown) [2-aminoheptane]	11.85	10.70	
COc1ccccn1 [2-methoxypyridine]	8.14		
Cc1cncc(C)c1 [3,5-dimethylpyridine]	9.58		
COc1cccnc1 [3-methoxypyridine]	8.89	4.78	
COc1ccncc1 [4-methoxypyridine]	9.79	6.58	
CN1CCCC1 [N-methylpyrrolidine]	11.73	10.46	
c1ccc2[nH]cnc2c1 [benzitnidazole]	9.24	5.48	
NCc1ccccc1 [benzylamine]	11.17		
NC1CCCCC1 [cyclohexylamine]	11.82		
O=C(O)Cc1ccccc1Nc1c(Cl)cccc1Cl [diclofenac, diclofenac sodium]			cumulative amount of diclofenac that permeated through the skin ([2]; N-methyl glucamine added (Formulation H, with NaOH)): 1.54 mg/cm^2; cumulative amount of diclofenac that permeated through the skin ([2]; monoethanolamine added (Formulation G, with NaOH)): 1.57 mg/cm^2; cumulative amount of diclofenac that permeated through the skin ([2]; no nitrogenous base added (Formulation E, NaOH only)): 0.90 mg/cm^2; cumulative amount of diclofenac permeated, times higher than when no nitrogenous base was present ([2]; system containing monoethanolamine vs no nitrogenous base): about 1.7 times; cumulative amount of diclofenac that permeated through the skin ([2]; triethanolamine added (Formulation F, with NaOH)): 1.08 mg/cm^2
NCCN [ethylenediamine]		9.93	
CC(C)N [isopropylamine]	11.80	10.60	
CCCCN [n-butylamine]	11.81		
NCCc1ccccc1 [phenethylamine]	11.42		
C1CNCCN1 [piperazine]	11.42		
NC(N)=O [urea]	6.55		
CC(N)c1ccccc1 (stereo not drawn) [α-methyl-benzylamine]	11.38	9.75	
Cc1ccncc1 [γ-picoline]		5.99	
